The source of these data is patent US20100160207A1, “Feedback Prodrug” (University of Georgia Research Foundation, Inc., priority 2006, published 2010).

pKi: −log10 of the molar value.

Series [1] concerns the target T1, human lysosomal mannosidase (HLM) (Homo sapiens, UniProt O00754).
T1 sequence (O00754 50-1011): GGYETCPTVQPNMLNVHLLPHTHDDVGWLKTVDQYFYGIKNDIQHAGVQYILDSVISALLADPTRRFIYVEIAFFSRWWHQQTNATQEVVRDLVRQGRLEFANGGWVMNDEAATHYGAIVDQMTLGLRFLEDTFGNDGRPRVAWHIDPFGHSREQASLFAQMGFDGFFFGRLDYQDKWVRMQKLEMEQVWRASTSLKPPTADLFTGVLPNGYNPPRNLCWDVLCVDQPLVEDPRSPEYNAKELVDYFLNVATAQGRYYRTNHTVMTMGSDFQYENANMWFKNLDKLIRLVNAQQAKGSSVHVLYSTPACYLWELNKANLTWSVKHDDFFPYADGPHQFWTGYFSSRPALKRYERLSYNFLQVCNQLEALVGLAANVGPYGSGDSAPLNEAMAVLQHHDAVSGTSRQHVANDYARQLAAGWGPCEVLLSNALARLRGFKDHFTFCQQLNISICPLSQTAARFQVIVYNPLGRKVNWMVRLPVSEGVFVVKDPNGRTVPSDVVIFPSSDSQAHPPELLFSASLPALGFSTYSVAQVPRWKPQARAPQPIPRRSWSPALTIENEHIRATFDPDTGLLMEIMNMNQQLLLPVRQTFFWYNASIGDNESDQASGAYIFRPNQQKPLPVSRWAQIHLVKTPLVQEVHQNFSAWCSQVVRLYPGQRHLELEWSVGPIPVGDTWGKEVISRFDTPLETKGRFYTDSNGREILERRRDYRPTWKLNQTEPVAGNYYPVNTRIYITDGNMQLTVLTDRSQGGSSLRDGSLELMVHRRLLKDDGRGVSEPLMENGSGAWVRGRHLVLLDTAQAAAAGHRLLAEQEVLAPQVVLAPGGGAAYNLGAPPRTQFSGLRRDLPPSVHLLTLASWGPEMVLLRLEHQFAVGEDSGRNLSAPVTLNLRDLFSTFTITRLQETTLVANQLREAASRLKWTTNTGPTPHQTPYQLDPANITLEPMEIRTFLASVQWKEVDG
The experiment in a line: Enzymatic cleavage of prodrugs by human lysosomal mannosidase monitored by 1H NMR. To be noted: HLM 20 mU, 80 nmol compound, sodium acetate buffer pH 5.6, 37° C. It counts as biochemical. As for the experimental part:
HLM ([…]) was added to a solution of 2 (a) or 1 (b) ([…]) in a deuterated sodium acetate buffer (100 mM, pH, 5.6, 0.2 mL) and the enzymatic cleavage was monitored by ^1H NMR (600 MHz).
The enzymatic cleavage of 1 and 2 by human lysosomal mannosidase (HLM) was monitored by ^1H NMR (600 MHz) (Wilson et al., Org. Lett. 1999, 1, 443) Thus, HLM (20 mU) was added to a solution of 1 or 2 (80 nmol) dissolved in a deuterated sodium acetate buffer (100 mM, pH 5.6, 0.2 mL). The progress of the reaction was monitored by the integration of key signals of the starting material, the intermediate and final product. […] In this case, the released mannostatin A (5) inhibits HLM terminating further hydrolysis of 1. Mannostatin A is a potent inhibitor of retaining α-mannosidases (Ki=90 nM, HLM) (Li et al., Chem. Bio. Chem. 2004, 5, 1220) and thus the release of low concentrations of the active compound is sufficient to abolish enzyme activity.
Kinetic measurements. A solution of compound 1 or 2 (0.08 μmol) and human lysosomal mannosidase (HLM, 0.02 Unit) in deuterated sodium acetate buffer (0.1 M; pH 5.6; 0.2 ml) was incubated at 37° C., and ^1H NMR spectra (600 MHz) were recorded at different time intervals. Relevant signals were integrated to determine the rate of enzymatic hydrolysis, and the appearance of the intermediate and the final product.

The nature of series [2]: Stability measurements in deuterated sodium acetate buffer by 1H NMR. It counts as physicochemical. To be noted: 0.4 mM, sodium acetate buffer pH 4.0, 37° C., 6 days. The method, then: Stability measurements. A solution of compound 1 or 2 (0.4 mM) in deuterated sodium acetate buffer (100 mM; pH 4.0; 0.2 ml) in a NMR tube was incubated at 37° C. for 6 days. ^1H NMR spectra were recorded every day.

Another series has as its system α-L-fucosidase. The experiment in a line: Negative enzyme control experiment, α-L-fucosidase. To be noted: 0.1 Unit, MES buffer pH 5.5, 37° C., 20 h. It counts as biochemical. The method, then: (§1) Compounds 1 and 2 were subjected to an α-glucosidase, α-fucosidase and α-galactosidase.
(§2) Negative enzyme control experiments. A solution of compound 1 or 2 (0.004 mmol) and α-glucosidase, α-galactosidase or α-L-fucosidase (0.1 Unit) in MES buffer (0.05 M; pH 6.8 for α-glucosidase, pH 6.5 for α-galactosidase or pH 5.5 for α-L-fucosidase; 1 ml) was incubated at 37° C. for 20 h, after which the reaction mixture was freezing-dried, and the solid residue was analyzed by ^1H NMR spectrometry and mass spectrometry.

Another series concerns α-galactosidase. The experiment in a line: Negative enzyme control experiment, α-galactosidase. In kind it is biochemical. As to conditions: 0.1 Unit, MES buffer pH 6.5, 37° C., 20 h. The method, then: as §1, §2
Series [3] is described as follows: Self-decomposition half-time of the intermediate released from prodrug 2 by Jack Bean mannosidase, followed by 1H NMR. It counts as physicochemical. To be noted: phosphate/citrate buffer. The method, then:
Next, the pH dependence of the self-fragmentation of intermediates 3 and 4 was investigated. It is well known that different organelles have different pH values. […] Golgi mannosidase II has been identified as a target for anti-metastatic therapy (Goss et al., Clin. Cancer Res. 1995, 1, 935; Elbein, FASEB J. 1991, 5, 3055), whereas inhibition of lysosomal mannosidase leads to the phenotype of lysosomal storage disease. […] Thus, compound 2 (0.4 mM) in sodium acetate buffers of different pH was treated with a large quantity (7 Units/mL) of Jack Bean α-mannosidase (JBM) to completely convert the prodrug into intermediate 4. Subsequently, the decomposition of 4 was monitored by ^1H NMR by integration of key signals of the intermediate and final product. […] The results of these experiments indicate that in a compartment such as the medial Golgi, which has a pH close to neutral, the decomposition of the intermediate will occur in minutes, which is probably fast enough for rebinding of the inhibitor.
Self-decomposition half-time measurements. A solution of compound 2 (0.08 μmol) and Jack Bean mannosidase (JBM) (1.4 Units) in deuterated 0.2 M phosphate/0.1 M citrate buffer (pH=4.0, 4.5, 5.0, 5.5, 6.0 or 6.5; 0.2 ml) was incubated at 37° C. or 25° C., and ^1H NMR spectra (600 MHz) were recorded at different time intervals. Relevant signals were integrated to determine the appearance of the intermediate 4 and the final product 6, and the decomposition rate.

For a further series, the system named is α-glucosidase. Put plainly: Negative enzyme control experiment, α-glucosidase. In kind it is biochemical. As to conditions: 0.1 Unit, MES buffer pH 6.8, 37° C., 20 h. As for the experimental part:
as §1, §2

Series [4] concerns the target T1, human lysosomal mannosidase (HLM). Put plainly: Inhibition of human lysosomal mannosidase. It counts as biochemical.
A further series has as its system MDAY-D2 lymphoma cells. The experiment in a line: Inhibition of cell surface polylactosamine biosynthesis (L-PHA lectin blot). In kind it is cell-based. To be noted: MDAY-D2 cells cultured for two days. As for the experimental part:
MDAY-D2 cells were cultured for 2 days in the absence (control) or presence of different concentrations of compounds 14 (a) or 15 (b). Cellular proteins (10 μg) were subjected to SDS-PAGE and polylactosamine was visualized using a fluorescein labeled L-PHA lectin (upper part figure). Fluorescence bands were scanned by laser beam densitometry, and the relative intensity depicted (lower part figure).
It is known that the metastatic MDAY-D2 lymphoma cell line over-expresses the enzyme N-acetyl glucosaminyltransferase V (GnTV) (Goss et al., Clin. Cancer Res. 1995, 1, 935). […] Subsequently, the presence of polylactosamine linked to proteins was determined by analyzing cell lysates by Western blotting using a fluorescein labeled PHA lectin (Dennis et al., Cancer Res. 1990, 50, 1867).
Cell maintenance. […] New batches of frozen cell stock were grown up every 2 months and growth morphology was evaluated.
Inhibition of cell surface polylactosamine biosynthesis. […] Protein concentrations were determined using the BCA reagent (Pierce) and cellular proteins (10 μg) were separated by SDS-PAGE using 4-20% linear gradient polyacrylamide gels (Bio-Rad). […] Fluorescence bands were imaged at 495 nm (absorbance)/520 nm (emission) and the intensity scanned by laser beam densitometry (Typhoon 9410 Imager; Amersham Biosciences).

In series [5] the target is T1, human lysosomal mannosidase (HLM). As to conditions: Li et al., Chem. Bio. Chem. 2004; cited from earlier work.

On to `O=C(NC1C(O)C(O)C(O)C1O)OCc1ccc(O[C@H]2O[C@H](CO)[C@@H](O)[C@H](O)[C@@H]2O)cc1` (stereo partly drawn) [Compound 2, (1,4/2,3,5)-5-[4-(α-D-mannopyranosyloxy)-benzyloxycarbonyl]amino-1,2,3,4-cyclopentanetetrol], for which, in series [1], the “enzymatic hydrolysis of the prodrug by HLM” value is listed as “progressed to completion”. In addition, the decomposition in buffer result in [2] was “No decomposition of product was observed”. In addition, the “decomposition by α-L-fucosidase” value in the series on α-L-fucosidase is “No decomposition of product was observed”. Further, the “decomposition by α-galactosidase” value in the series with α-galactosidase was “No decomposition of product was observed”. Moreover, the half-life of self-fragmentation in series [3] (pH 4.0, 25° C.) was found to be 46.67 h; in [3] (pH 4.0, 37° C.), 8 h; in series [3] (pH 4.5, 37° C.) it was 4.5 h; in series [3] (pH 5.0, 37° C.) it was 1.67 h; in series [3] (pH 5.5, 37° C.) it was 0.75 h; in [3] (pH 6.0, 37° C.) it was 0.267 h. Besides, the half-life of self-fragmentation in series [3] (pH 6.5, 25° C.) is 0.75 h; in series [3] (pH 6.5, 37° C.) it was 0.15 h. Also, in the series on α-glucosidase, the “decomposition by α-glucosidase” value is listed as “No decomposition of product was observed”.
In the case of `NC1C(O)C(O)C(O)C1O` (centres unmarked) [Compound 6, aminocyclopentitetrol], the “inhibition of HLM” value in series [4] is given as “not an inhibitor of HLM”.
Take `CSC1C(NC(=O)OCc2ccc(O[C@H]3O[C@H](COC(C)=O)[C@@H](OC(C)=O)[C@H](OC(C)=O)[C@@H]3OC(C)=O)cc2)C(OC(C)=O)C(OC(C)=O)C1OC(C)=O` (stereo partly drawn) [Compound 14, 1D-(1,2,3,4/5)-4-[4-(2,3,4,6-tetra-O-acetyl-α-D-mannopyranosyloxy)-benzyloxycarbonyl]amino-1,2,3-tri-O-acetyl-5-(methylsulfanyl)cyclopentane-1,2,3-triol]: the “reduction in fluorescein labeling (polylactosamine)” value in the series with MDAY-D2 lymphoma cells (1 μM) is on record as 50%.
For the molecule `CC(=O)OC[C@H]1O[C@H](Oc2ccc(COC(=O)NC3C(OC(C)=O)C(OC(C)=O)C(OC(C)=O)C3OC(C)=O)cc2)[C@@H](OC(C)=O)[C@@H](OC(C)=O)[C@@H]1OC(C)=O` (stereo partly drawn) [Compound 15, (1,4/2,3,5)-5-[4-(2,3,4,6-tetra-O-acetyl-α-D-mannopyranosyloxy)-benzyloxycarbonyl]amino-1,2,3,4-tetra-O-acetyl-1,2,3,4-cyclopentanetetrol], in the series with MDAY-D2 lymphoma cells (0.1-100 μM), the “inhibitory activity on polylactosamine formation” value was “did not display any inhibitory activity”.
Take `CS[C@@H]1[C@@H](N)[C@@H](O)[C@@H](O)[C@H]1O` [Mannostatin A, mannostatin A]: the pKi in [5] was 7.05.
